Source: US11400168B2, “Methods and systems for noninvasive control of brain cells and related vectors and compositions” (CALIFORNIA INSTITUTE OF TECHNOLOGY, priority 2017, dated 2022)

How the values were obtained:
[1] = Exploratory behavior in novel environment (Context B, open field test); format: in vivo; conditions: all groups of mice (ATAC, AAV without FUS-BBBO, wild-type), 3 minutes
Protocol: (§1) Behavioral studies for fear conditioning were performed in sound-attenuated fear conditioning chambers (30×25×25 cm, Med Associates). Animals were trained and tested for context fear in Context A, which comprised a staggered wire grid floor, white light, 5% acetic acid for scent and no background noise. Locomotor testing was performed in Context B, which was differentiated from Context A by chamber shape, floor, illumination, odor, background noise and room location. Animal activity was recorded and quantified using Video Freeze software (Med Associates). For cued training, the tone was 80 dB and 30s.
Between 30 and 45 minutes after the context fear test, mice were transported to another room, placed in Context B and allowed to explore the chamber for 3 minutes while their activity was recorded. Due to automated data acquisition and evaluation, no blinding was necessary.
One day after fear conditioning, the mice were placed in a novel environment (Context B in FIG. 5, panel a), which they were allowed to explore freely for 3 minutes. The exploratory behavior of all groups of mice was likewise unaffected by CNO administration (FIG. 5, panel e-g).

hM3Dq [2] = target: T1, hM3Dq (Homo sapiens, UniProt P20309, A239G/Y149C); assay: c-Fos activation in dorsal CA3 of hippocampus after CNO in mice expressing hM3Dq-mCherry (ATAC); format: in vivo; parameters: host or cells: mouse (C57BL6J) hippocampal excitatory neurons transduced in vivo with AAV9; conditions: CNO 1 mg/kg IP, 2.5 h, 22 weeks after FUS-BBBO, n=6
Protocol: C57BL6J male mice of 13 weeks of age underwent FUS-BBBO to administer AAV9 carrying hM3Dq-mCherry into the hippocampus. Subsequently, mice were housed singly to reduce background C-fos expression. After 22 weeks of expression, mice received an IP injection of 1 mg/kg CNO in sterile saline, and were returned to home cages. After 150 minutes, mice were anesthetized using Ketamine/Xylazine solution (80 mg/kg and 10 mg/kg, respectively, in PBS) and perfused with a cold PBS/Heparin (10 U/ml), and immediately afterwards with 10% Neutral Buffered Formalin (NBF). Their brains were extracted and post-fixed in 10% NBF for at least 24 hours. Brain sections (50 μm) were obtained using a VF-300 compresstome (Precisionary Instruments). […]
(§2) For activation of hippocampus, the histological evaluation was performed by an observer blinded to the identity (hM3Dq positive, or negative) of granular layer nuclei in dCA3. The expression status of the neurons was determined after the scoring of c-Fos positivity. The activation of TH neurons was evaluated by an observer blinded to the presence of FUS-BBBO targeting at a given site. […] A three-dimensional reference atlas[82] was used to choose the appropriate regions and brain sections for each mouse and contralateral and ipsilateral controls to ascertain consistency in choice of analyzed sections. […]

hM3Dq [3] = target: T1, hM3Dq; assay: Intersectional ATAC: c-Fos activation of TH-positive neurons in SNc/VTA of TH-CRE mice; format: in vivo, TH-CRE transgenic mice; parameters: expressed in transfected cells; host or cells: TH-positive neurons of SNc/VTA in TH-CRE transgenic mice, transduced in vivo with AAV9; conditions: CNO 1 mg/kg IP, 2 h; 9 weeks expression; n=5 mice
Protocol: After FUS-BBBO, the mice were imaged again using the same FLASH sequence to confirm opening of the BBB and appropriate targeting. Immediately afterwards, mice were placed in the home cage for recovery. The TH-CRE animals, aged 18 weeks, were subjected to FUS-BBBO using the same protocol, and using the same dose of AAV9, as for C57BL6J mice. All TH-CRE animals were females.
as §2, with “site. TH-CRE mice expressed hM3Dq for 9 weeks after FUS-BBBO, and then were given 1 mg/kg CNO. After 2 h, they were anesthetized with ketamine/xylazine (80/10 mg/kg in PBS) and perfused using cold heparine/PBS (10 u) and then 10% NBF.” for “site.”

[4] = Cued conditioning acquisition (freezing during third tone of training); format: in vivo; conditions: ATAC, wild-type and AAV without FUS-BBBO mice
Protocol: as §1
Mice were injected with CNO (10 mg/kg, IP) or saline (IP), and after 40-60 minutes underwent context and cued fear conditioning in Context A. This timeframe was chosen to allow CNO to reach its pharmacokinetic peak[88]. A 3-minute initial baseline period was followed by 3×30-s presentations of a tone co-terminated with a 2-s foot shock (0.7 mA), with inter-trial interval of 60 s. After the trials, the mice remained in the context for an additional 60 s, after which they were transported back into the vivarium. After 24 h, mice were placed in Context A to record context fear for the duration of training (8 min. and 40 s). […]

hM4Di = target: T2, hM4Di (Homo sapiens, UniProt P08173, A203G/Y113C); assay: Context fear conditioning and recall (freezing in Context A) with hM4Di targeted to ventral and dorsal hippocampus; format: in vivo, mice
T2 construct: host or cells: mouse (C57BL6J) hippocampal excitatory neurons transduced in vivo with AAV9
T2 sequence (P08173 1-479 Y113C/A203G): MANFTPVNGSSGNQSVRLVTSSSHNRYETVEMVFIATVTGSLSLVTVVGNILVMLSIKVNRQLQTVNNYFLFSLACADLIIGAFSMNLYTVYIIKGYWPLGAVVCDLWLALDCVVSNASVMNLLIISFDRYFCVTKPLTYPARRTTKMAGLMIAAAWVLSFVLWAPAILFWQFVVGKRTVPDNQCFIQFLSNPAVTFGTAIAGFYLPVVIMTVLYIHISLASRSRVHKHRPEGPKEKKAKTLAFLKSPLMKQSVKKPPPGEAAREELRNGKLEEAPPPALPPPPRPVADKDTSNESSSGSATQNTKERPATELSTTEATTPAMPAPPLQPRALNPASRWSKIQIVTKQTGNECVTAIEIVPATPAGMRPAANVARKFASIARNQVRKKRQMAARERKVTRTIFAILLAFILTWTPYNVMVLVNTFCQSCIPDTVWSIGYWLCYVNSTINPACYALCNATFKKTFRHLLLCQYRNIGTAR
Protocol: as §1
Mice were injected with CNO (10 mg/kg, IP) or saline (IP), and after 40-60 minutes underwent context and cued fear conditioning in Context A. This timeframe was chosen to allow CNO to reach its pharmacokinetic peak[88]. A 3-minute initial baseline period was followed by 3×30-s presentations of a tone co-terminated with a 2-s foot shock (0.7 mA), with inter-trial interval of 60 s. After the trials, the mice remained in the context for an additional 60 s, after which they were transported back into the vivarium. After 24 h, mice were placed in Context A to record context fear for the duration of training (8 min. and 40 s).
Mice were recorded using automated near-infrared video tracking in the fear conditioning chamber using VideoFreeze software. Mouse motion was measured using the activity score, from a video recording at 30 frames/s, with the motion threshold set at 18 activity units (standard value set in software). Freezing was defined as an activity score below 18 units for at least 1 s. Average freezing in the context test was scored over the whole trial. Due to automated data acquisition and evaluation, no blinding was necessary.
mice were excluded from statistical analysis if their histologically determined DREADD expression was below 30% of cell bodies in dorsal CA3 region of the hippocampus. This threshold was chosen based on previous studies showing that behavioral effects generally require modulation of at least 30% of the neurons in a targeted region[89, 90] and dorsal CA3 being the most robustly transfected hippocampus region. The resulting analyzed groups had identical levels of expression (55.1% for Saline and 60.5% for CNO groups, p=0.26, heteroscedastic, two-tailed, t-test). […] Variability in gene expression may have been due to variability in intravenous injections of virus during the FUS-BBBO procedure, since we found no difference between these mice in T1 MRI signal enhancement post FUS-BBBO (FIG. 15, panel b).
To assess the ability of ATAC to inhibit targeted neurons, and to test the functionality of this technology in a behavioral paradigm, FUS-BBBO was used to target inhibitory DREADDs (hM4Di) to ventral and dorsal hippocampus (FIG. 5, panel a), and the impact of CNO administration on the formation of contextual fear memories was assessed. This well-established behavioral paradigm has been used in studies of anxiety, phobias, PTSD and fear circuitry[99]° [100]. Fear conditioning has also served as a testing ground for other novel neuromodulatory techniques. Since the hippocampus plays an essential role in memory formation, it is hypothesized that inhibiting it noninvasively using the ATAC strategy would reduce the ability of mice to form fear memories.
Two groups of control mice were either completely untreated or received intravenous virus without FUS-BBBO. After 6-8 weeks, the mice underwent a fear conditioning protocol (FIG. 5, panel a). In this protocol, the mice are placed in a unique environment (defined by chamber shape, lighting, smell and sound; Context A in FIG. 5, panel a) while receiving three electric foot shocks, causing them to associate this environment with the noxious stimulus in a process known as context fear conditioning. […]

T1 sequence (P20309 whole entry Y149C/A239G, the tested form may be a part): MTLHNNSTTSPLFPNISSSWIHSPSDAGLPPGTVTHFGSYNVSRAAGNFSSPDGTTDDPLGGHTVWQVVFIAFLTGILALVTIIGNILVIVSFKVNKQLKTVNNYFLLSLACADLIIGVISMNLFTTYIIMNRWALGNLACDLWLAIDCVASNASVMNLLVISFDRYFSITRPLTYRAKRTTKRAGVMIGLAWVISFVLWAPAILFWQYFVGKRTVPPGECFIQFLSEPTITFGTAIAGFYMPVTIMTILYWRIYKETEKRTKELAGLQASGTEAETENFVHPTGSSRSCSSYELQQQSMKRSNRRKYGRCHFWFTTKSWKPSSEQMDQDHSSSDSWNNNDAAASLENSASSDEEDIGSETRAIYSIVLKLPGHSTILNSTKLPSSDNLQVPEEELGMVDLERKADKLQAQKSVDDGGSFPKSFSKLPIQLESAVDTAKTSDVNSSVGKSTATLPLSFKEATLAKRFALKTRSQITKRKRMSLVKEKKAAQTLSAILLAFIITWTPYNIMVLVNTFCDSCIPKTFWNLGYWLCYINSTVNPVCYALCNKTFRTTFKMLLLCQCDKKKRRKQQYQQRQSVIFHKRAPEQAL

C[N+]1([O-])CCN(C2=Nc3cc(Cl)ccc3Nc3ccccc32)CC1 [CNO, clozapine-N-oxide]
exploratory behavior [1]: unaffected
likelihood of c-Fos staining, hM3Dq-positive cells versus cells not expressing hM3Dq (hM3Dq [2]): 5.8 times
increase in activation (c-Fos) among TH-positive neurons, ATAC-targeted side versus contralateral (hM3Dq [3]): 7.3 fold
cued freezing at the end of the training session [4]: unaffected
time spent freezing in fear recall context (hM4Di; ATAC mice (hM4Di), CNO 10 mg/kg IP 40-60 min before conditioning, recall 24 h later, saline 53.2%): 21.8%
context fear (freezing) without excluding mice with expression below 30% (hM4Di; ATAC mice treated with CNO, all mice, saline 53.2%): 34%
reduction in fear memory versus saline (hM4Di; ATAC mice, CNO before conditioning, n=13 and 7): more than 2 fold
context fear relative to untreated controls (hM4Di; CNO treatment alone in wild-type mice): did not result in a reduction in context fear
correlation (r) of DREADD expression in dorsal CA3 with formation of context fear memories (hM4Di; mice treated with CNO, all mice, n=11): 0.62
reduction in fear memory formation (hM4Di; single injection of CNO several weeks after FUS-BBBO): 2.4 fold
context fear relative to untreated controls (hM4Di; systemic AAV9 injection without FUS-BBBO, CNO): did not result in a reduction in context fear
